# Measured values published in patent US12275725B2, “Inhibitors of the notch transcriptional activation complex and methods for use of the same” (University of Miami, priority 2019, dated 2025).
# Like-named read-outs stand apart in the source and are kept apart here.
# Columns and labels:
# [1] = Aqueous solubility in SGF, FaSSIF and PBS
# [2] = biological target: T1, Notch transcriptional activation complex (NTC) (Homo sapiens, UniProt P46531+Q06330); assay: Notch complex assembly assay (NTC AlphaScreen assay); type: binding
# T1 construct: made in house; host or cells: SF21 insect cells (baculovirus)
# Procedure: Notch Complex Assembly Assay
# All recombinant proteins were expressed using baculovirus expression vectors in SF21 cells and purified. Unless otherwise stated, all assays contained 125 fmol of double stranded oligonucleotide, CSL, Notch1 and MAML1 proteins. Reactions were carried out in Tris-buffered saline with 0.1% Tween (“TBS-T”) buffer containing 0.2% bovine serum albumin (“BSA”) and 100 μg/mL salmon sperm DNA. Briefly, the Notch complex was assembled on a biotinylated double stranded (“DS”) oligonucleotide harboring one CSL binding site (5′-[…]-3′). Complex assembly was quantitated using ALPHASCREEN technology (Perkin Elmer). Proteins in the complexes were detected using specific antibodies to either MAML1 (Cell signaling, D3K7B), Notch1 (Abcam, 52627) or CSL (anti-His, Abcam 18184). Streptavidin conjugated […] beads (Perkin Elmer, 6760002) were used to bind the DS oligonucleotide, and Protein-A conjugated […] beads (Perkin Elmer, 6760137) were used to detect antibody-coated proteins. For screening compounds, Notch transcriptional activation complex (“NTC”) components were added to wells that already contained the inhibitor to be assayed and allowed to incubate for 30 minutes. The ALPHASCREEN plate (Perkin Elmer, 6008350) was then read on an Envision Plate reader (Perkin Elmer) as specified by the manufacturer.
# [3] = GSH ethyl ester conjugation / parent remaining in human liver microsomes; type: in vitro ADME; settings: for Percentage (%) Parent Remaining in HLM: reacted with GSH
# [4] = Pharmacokinetic study in mouse plasma; type: in vivo; settings: for Cmax: read-out: *C0/Cmax
# Procedure: Pharmacokinetic studies were performed as previously described (Astudillo et al. (2016) Cancer Res). The following treatments were administered: NADi-260 via intraperitoneal (i.p.) route at 100 mg/kg, NADI-260 via intravenous route (i.v.) at 2 mg/kg, NADi-351 via i.p. at 10 mg/kg, NADi-351 via […] at 10 mg/kg and NADi-351 via oral route (PO) at 50 mg/kg. Blood samples were collected from each treatment group and their respective control grounds, plasma was separated from blood immediately by centrifugation at 4000 rpm for 10 min at 4° C. and stored below −70° C. until bioanalysis. All samples were processed for analysis by protein precipitation using acetonitrile and analyzed by fit for purpose LC-MS/MS method. Pharmacokinetic parameters were calculated using the non-compartmental analysis module of Phoenix WinNonlin (Version 6.3). Histological Analysis of Mouse Intestine Tissue
# OE 33 cell line = assay: Cell viability, MTT, OE33 cell line; type: cell-based, human; settings: for IC50: Homo sapiens, OE33, 72 h treatment
# Excerpt: OE33 cells, human esophageal adenocarcinoma cell lines, were obtained from the European Collection of Cell Culture. SUM-149 and SUM-159, breast cancer cell lines, were obtained from Dr. Joyce Slingerland at the University of Miami School of Medicine. The following cell lines were obtained directly from the ATCC: 786-0, a human renal cell adenocarcinoma cell line; HT-1080, a human fibrosarcoma cell line; MCF-7, a mammary gland adenocarcinoma; T47D, a human mammary ductal carcinoma cell line; and H-23 a non-small cell lung adenocarcinoma cell line. All cell lines were propagated in growth media as specified.
# [5] = Metabolism to acid form in mouse hepatocytes; type: in vitro ADME; settings: to SSTN-258
# [6] = Metabolism to acid form in liver microsomes; type: in vitro ADME; settings: to SSTN-258
# [7] = pH 1.2, simulated gastric fluid
# [8] = Table C, NTC AlphaScreen assay, read-out: *IC50
# [9] = Table E, NTC AlphaScreen assay, read-out: *IC50
# [10] = ip, NADi-260 i.p. 100 mg/kg, mouse plasma
# [11] = iv, NADi-260 i.v. 2 mg/kg, mouse plasma, back extrapolated, initial three time points only
# [12] = iv, NADi-260 i.v. 2 mg/kg, mouse plasma, initial three time points only
# [13] = Table B, read-out: IC50 (μM) NTC
# T1 sequence (P46531 1754-2555 limits assumed): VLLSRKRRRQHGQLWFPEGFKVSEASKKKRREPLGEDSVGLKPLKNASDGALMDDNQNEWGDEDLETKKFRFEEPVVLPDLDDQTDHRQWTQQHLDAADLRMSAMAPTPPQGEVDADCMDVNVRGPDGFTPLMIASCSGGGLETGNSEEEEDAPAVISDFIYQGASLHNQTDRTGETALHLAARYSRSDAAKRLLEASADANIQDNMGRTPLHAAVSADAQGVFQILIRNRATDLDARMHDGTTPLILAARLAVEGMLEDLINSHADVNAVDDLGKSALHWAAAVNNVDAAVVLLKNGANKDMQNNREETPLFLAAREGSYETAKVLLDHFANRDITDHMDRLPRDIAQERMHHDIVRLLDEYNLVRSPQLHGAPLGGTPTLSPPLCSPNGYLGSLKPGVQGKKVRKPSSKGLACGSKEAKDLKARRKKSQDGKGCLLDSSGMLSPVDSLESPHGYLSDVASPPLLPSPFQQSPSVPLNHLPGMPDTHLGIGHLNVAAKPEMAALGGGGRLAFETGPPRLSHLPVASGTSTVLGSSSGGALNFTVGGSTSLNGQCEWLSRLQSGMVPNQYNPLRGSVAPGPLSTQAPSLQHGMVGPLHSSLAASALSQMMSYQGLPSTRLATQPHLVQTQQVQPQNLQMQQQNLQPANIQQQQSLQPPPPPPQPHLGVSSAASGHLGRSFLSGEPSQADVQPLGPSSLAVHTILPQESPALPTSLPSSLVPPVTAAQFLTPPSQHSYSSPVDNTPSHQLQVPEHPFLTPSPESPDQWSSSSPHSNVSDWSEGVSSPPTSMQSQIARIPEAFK
# T1 sequence (Q06330 whole entry): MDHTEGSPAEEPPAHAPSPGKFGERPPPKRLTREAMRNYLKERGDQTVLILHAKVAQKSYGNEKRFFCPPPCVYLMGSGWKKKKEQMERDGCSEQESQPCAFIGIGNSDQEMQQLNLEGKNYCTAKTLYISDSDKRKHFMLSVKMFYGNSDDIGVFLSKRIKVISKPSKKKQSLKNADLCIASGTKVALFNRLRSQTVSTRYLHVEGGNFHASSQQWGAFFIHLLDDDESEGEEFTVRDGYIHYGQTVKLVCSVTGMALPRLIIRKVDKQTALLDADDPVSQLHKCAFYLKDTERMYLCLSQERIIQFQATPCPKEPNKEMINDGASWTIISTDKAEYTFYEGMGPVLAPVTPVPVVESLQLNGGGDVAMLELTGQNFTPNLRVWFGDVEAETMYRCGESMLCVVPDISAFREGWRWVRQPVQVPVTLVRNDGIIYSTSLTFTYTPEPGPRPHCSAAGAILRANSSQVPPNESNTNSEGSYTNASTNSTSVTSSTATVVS
smiles,measurement,setting,value
"O=C(O)CCCc1ccc(N(CCCl)CCCl)cc1 [Chlorambucil, chlorambucil]",solubility,[1]; [7],70.4 ± 2.6 µM
same,solubility,"[1]; pH 6.5, fassif",68.9 ± 1.9 µM
"CC/C(=C(/CC)c1ccc(O)cc1)c1ccc(O)cc1 [DES, diethylstilbestrol, reference compound]",solubility,"physchem; pH 7.4, aqueous buffer",< 5 µM
CCN(CC)C(=O)COc1c(F)cc(/C=C2\SC(=S)N(CC(=O)N(C)C)C2=O)cc1OC [NADi-244],IC50,[2]; [8],2.9 µM
COc1cc(/C=C2\SC(=S)N(CC(=O)N(C)C)C2=O)cc(F)c1OCc1ncco1 [NADi-248],*IC50 (μM),"[2]; Table C, NTC AlphaScreen assay",Inactive
COc1cc(/C=C2\SC(=S)N(CC(=O)N(C)C)C2=O)cc(F)c1OCc1ncc(C)o1 [NADi-249],*IC50 (μM),"[2]; Table C, NTC AlphaScreen assay",Inactive
COc1cc(/C=C2\SC(=S)N(CC(=O)N(C)C)C2=O)cc(F)c1OCc1nc(C)c(C)o1 [NADi-251],*IC50 (μM),"[2]; Table C, NTC AlphaScreen assay",Inactive
CCc1coc(COc2c(F)cc(/C=C3\SC(=S)N(CC(=O)N(C)C)C3=O)cc2OC)n1 [NADi-253],IC50,[2]; [8],0.3 µM
COc1cc(/C=C2\SC(=S)N(CC(=O)N(C)C)C2=O)cc(F)c1OCc1nnc(C)o1 [NADi-255],*IC50 (μM),"[2]; Table C, NTC AlphaScreen assay",Inactive
CCc1nnc(COc2c(F)cc(/C=C3\SC(=S)N(CC(=O)N(C)C)C3=O)cc2OC)o1 [NADi-256],*IC50 (μM),"[2]; Table C, NTC AlphaScreen assay",Inactive
COc1cc(/C=C2\SC(=S)N(CC(=O)N(C)C)C2=O)cc(F)c1OCc1nc(C)no1 [NADi-258],*IC50 (μM),"[2]; Table C, NTC AlphaScreen assay",Inactive
CCc1noc(COc2c(F)cc(/C=C3\SC(=S)N(CC(=O)N(C)C)C3=O)cc2OC)n1 [NADi-259],*IC50 (μM),"[2]; Table C, NTC AlphaScreen assay",Inactive
"COc1cc(/C=C2\SC(=S)N(CC(=O)N(C)C)C2=O)cc(F)c1OCc1nc[nH]n1 [NADi-260, (Z)-2-(5-(4-((1H-1,2,4-triazol-3-yl)methoxy)-3-fluoro-5-methoxybenzylidene)-4-oxo-2-thioxothiazolidin-3-yl)-N,N-dimethylacetamide]",Percentage (%) Parent Remaining in HLM,[3]; incubation time 0 min,100%
same,Percentage (%) Parent Remaining in HLM,[3]; incubation time 60 min,46%
same,GSH ethyl ester conjugation in HLM,[3]; within 60 minutes of incubation,showed GSH ethyl ester conjugation
same,IC50,[2]; [8],0.02 µM
same,IC50,[2]; [9],0.02 µM
same,AUC(0-inf),[4]; [10],5420 ng·h/mL
same,AUC(0-t),[4]; [10],5320 ng·h/mL
same,Tmax,[4]; [10],4.8 min
same,Cmax,[4]; [10],5700 ng/mL
same,Cmax,[4]; [11],837 ng/mL
same,clearance,"[4]; iv, NADi-260 i.v. 2 mg/kg, mouse plasma, cell says NR, value in footnote",429 mL/min/kg
same,AUC(0-inf),[4]; [12],78 ng·h/mL
same,AUC(0-t),[4]; [12],77 ng·h/mL
same,half-life,[4]; [12],4.8 min
same,Vd,"[4]; iv, NADi-260 i.v. 2 mg/kg, mouse plasma, read-out: Vss",1.79 L/kg
COc1cc(/C=C2\SC(=S)N(CC(=O)N(C)C)C2=O)cc(F)c1OCc1nnc(C)[nH]1 [NADi-261],IC50,[2]; [8],0.62 µM
CCc1nnc(COc2c(F)cc(/C=C3\SC(=S)N(CC(=O)N(C)C)C3=O)cc2OC)[nH]1 [NADi-262],IC50,[2]; [8],0.08 µM
"COc1ccc2[nH]c([S+]([O-])Cc3ncc(C)c(OC)c3C)nc2c1 (centres unmarked) [Omeprazole, omeprazole, reference compound]",solubility,physchem; [7],< 5 µM
same,solubility,"physchem; pH 6.5, fassif",174 ± 5.4 µM
COc1cc(/C=C2\SC(=S)N(CC(=O)N(C)C)C2=O)cc(F)c1O [PM6],plasma level of metabolite,"[4]; after NADi-260 i.v. 2 mg/kg, mouse plasma",BQL
same,AUC(0-t),[4]; [10],21 ng·h/mL
same,Tmax,[4]; [10],15 min
same,Cmax,[4]; [10],41 ng/mL
COc1cc(CC2SC(=S)N(CC(=O)N(C)C)C2=O)cc(F)c1OCc1nnc[nH]1 (centres unmarked) [PM7],AUC(0-inf),[4]; [10],19100 ng·h/mL
same,AUC(0-t),[4]; [10],18800 ng·h/mL
same,Tmax,[4]; [10],15 min
same,Cmax,[4]; [10],8520 ng/mL
same,Cmax,[4]; [11],3480 ng/mL
same,AUC(0-inf),[4]; [12],310 ng·h/mL
same,AUC(0-t),[4]; [12],308 ng·h/mL
CCOC(=O)COc1ccc(F)cc1/C=C1\SC(=S)N(CC(=O)N(C)C)C1=O [SSTN-251],IC50,[2]; [13],5.1 µM
same,IC50,OE 33 cell line,12.8 µM
CCOC(=O)COc1c(F)cc(/C=C2\SC(=S)N(CC(=O)N(C)C)C2=O)cc1OC [SSTN-253],time to metabolize to acid form,[5],≤ 15 min
same,IC50,[2]; [13],0.058 µM
same,IC50,[2]; [8],0.06 µM
same,IC50,[2]; [9],0.06 µM
same,IC50,OE 33 cell line,9.3 µM
same,time to metabolize to acid form,[6],≤ 15 min
same,metabolism in mouse plasma,"[4]; pharmacokinetic study of SSTN-253, FIG. 1C",metabolizes to its acid form (SSTN-258)
COc1cc(/C=C2\SC(=S)N(CC(=O)N(C)C)C2=O)ccc1OCC(=O)O [SSTN-254],IC50,[2]; [13],4.4 µM
same,IC50,OE 33 cell line,> 25 µM
COc1cc(/C=C2\SC(=S)N(CC(=O)N(C)C)C2=O)cc(F)c1OCC(=O)O [SSTN-258],inhibition of NTC assembly,[2]; FIG. 1B,did not inhibit
same,IC50 (μM) NTC,[2]; Table B,Inactive
same,"Cell viability (MTT, μM, 72 h treatment OE 33 cell line)",OE 33 cell line,No effect
